In patent publication US11286268B1, “EIF4E-inhibiting compounds and methods” (EFFECTOR THERAPEUTICS, INC., priority 2019, dated 2022):
pIC50: −log10 of the molar value. Like-named read-outs stand apart in the source and are kept apart here.

Target: recombinant eIF4E (Homo sapiens (Human), UniProt P06730)
Experiment: Fluorescence polarization competition assay for eIF4E binding potency
Outline: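 IC50 values reflect 50% displacement of 20 nM EDA-m7GDP-ATTO-550 from 75 nM eIF4E, measured by fluorescence polarization after 30 min at room temperature. Buffer: 20 mM Tris pH 7.5, 100 mM NaCl, 1 mM DTT, 0.02% Tween-20; 1% DMSO.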

[1] = fluorescence polarization competition, 75 nM recombinant eIF4E, 20 nM EDA-m7GDP-ATTO-550, IC50 class, read-out: elF4E FP
[2] = inhibition of eIF4E/EDA-m7GDP-ATTO-550 binding by 50%, Table 4B calculated values, read-out: IC50

Sequence of recombinant eIF4E (P06730 whole entry): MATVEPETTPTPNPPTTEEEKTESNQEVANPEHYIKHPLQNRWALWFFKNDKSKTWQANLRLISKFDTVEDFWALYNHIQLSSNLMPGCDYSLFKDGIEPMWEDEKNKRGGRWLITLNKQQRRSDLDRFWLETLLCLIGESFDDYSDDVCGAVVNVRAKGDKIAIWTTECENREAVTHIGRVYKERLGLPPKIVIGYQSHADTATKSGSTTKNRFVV

pIC50 [1] | pIC50 [2] | Compound
6.00 to 7.30 | 6.69 | Cc1nc2cc(C(F)(F)F)cc(C#N)c2c(=O)n1CCOc1ccc(C#N)nc1-c1ccnc2c(C(=O)O)csc12 [compound 292]
6.00 to 7.30 | 7.19 | Cc1nc2c(F)cc(S(C)(=O)=O)c(C#N)c2c(=O)n1CCOc1ccc(Cl)cc1-c1ccnc2c(C(=O)O)csc12 [compound 293]
> 7.30 | 7.64 | Cc1nc2c(F)c(C(F)(F)F)cc(C#N)c2c(=O)n1CCOc1ccc(Cl)cc1-c1ccnc2c(C(=O)O)csc12 [compound 294]
6.00 to 7.30 | 6.78 | Cc1nc2cc(C(F)(F)F)cc(C#N)c2c(=O)n1CCOc1ccc(Cl)cc1-c1ccnc2c(C(F)(F)C(=O)O)csc12 [compound 295]
> 7.30 | 7.44 | Cc1nc2ccc(S(=O)(=O)c3ccccn3)c(C#N)c2c(=O)n1CCOc1ccc(Cl)cc1-c1ccnc2c(C(=O)O)csc12 [compound 297]
6.00 to 7.30 | 7.00 | Cc1nc2c(F)c(F)c(C(F)F)c(C#N)c2c(=O)n1CCOc1ccc(Cl)cc1-c1ccnc2c(C(=O)O)csc12 [compound 298]
> 7.30 | 7.65 | Cc1nc2cc(C(F)(F)F)cc(C#N)c2c(=O)n1CCOc1ccc(Cl)cc1-c1csc2c(C(=O)O)ccnc12 [compound 299]
> 7.30 | 7.61 | Cc1nc2cc(C(F)(F)F)cc(C#N)c2c(=O)n1CCOc1ccc(Cl)cc1-c1coc2c(C(=O)O)cccc12 [compound 300]
6.00 to 7.30 | 7.24 | Cc1nc2cc(C(F)(F)F)cc(C#N)c2c(=O)n1CCOc1ccc(Cl)cc1-c1csc2c(C(=O)O)cccc12 [compound 301]
6.00 to 7.30 | 7.11 | Cc1nc2c(F)cc(C(F)F)c(C#N)c2c(=O)n1CCOc1ccc(Cl)cc1-c1ccnc2c(-c3nnn[nH]3)csc12 [compound 302]
6.00 to 7.30 | – | CONC(=O)c1csc2c(-c3cc(Cl)ccc3OCCn3c(C)nc4c(F)cc(C(F)F)c(C#N)c4c3=O)ccnc12 [compound 303]
< 6.00 | 5.80 | Cc1nc2cc(C(F)(F)F)cc(Br)c2c(=O)n1CCOc1ccc(Cl)cc1-c1cccc(C(=O)O)c1 [compound 304]
6.00 to 7.30 | 6.37 | Cc1nc2cc(C(F)(F)F)cc(Br)c2c(=O)n1CCOc1ccc(Cl)cc1-c1ccnc2c(C(=O)O)csc12 [compound 305]
6.00 to 7.30 | 7.04 | Cc1nc2cc(F)c(F)c(C#N)c2c(=O)n1CCOc1ccc(Cl)cc1-c1ccnc2c(-c3nnn[nH]3)csc12 [compound 306]
6.00 to 7.30 | 7.23 | Cc1nc2cc(F)c(F)c(C#N)c2c(=O)n1CCOc1ccc(Cl)cc1-c1ccnc2c(C(=O)NS(C)(=O)=O)csc12 [compound 307]
6.00 to 7.30 | 6.09 | CONC(=O)c1csc2c(-c3cc(Cl)ccc3OCCn3c(C)nc4cc(F)c(F)c(C#N)c4c3=O)ccnc12 [compound 308]
6.00 to 7.30 | 7.28 | COc1c(C)n(CCOc2ccc(Cl)cc2-c2ccnc3c(C(=O)O)csc23)c(=O)c2c(C#N)cc(C(F)(F)F)cc12 [compound 309]
6.00 to 7.30 | 7.01 | Cc1c(O)c2cc(C(F)(F)F)cc(C#N)c2c(=O)n1CCOc1ccc(Cl)cc1-c1ccnc2c(C(=O)O)csc12 [compound 310]
6.00 to 7.30 | 7.26 | Cc1nc2cc(F)c(CN(C)C)c(C#N)c2c(=O)n1CCOc1ccc(Cl)cc1-c1ccnc2c(C(=O)O)csc12 [compound 311]
6.00 to 7.30 | 7.12 | Cc1nc2c(C#N)ccc(C#N)c2c(=O)n1CCOc1ccc(Cl)cc1-c1ccnc2c(C(=O)O)csc12 [compound 312]
> 7.30 | 7.46 | Cc1nc2c(OC(F)(F)F)ccc(C#N)c2c(=O)n1CCOc1ccc(Cl)cc1-c1ccnc2c(C(=O)O)csc12 [compound 313]
> 7.30 | 7.37 | Cc1nc2cc(C(F)(F)F)cc(C#N)c2c(=O)n1CCOc1ccc(Cl)cc1-c1cnnc2c(C(=O)O)csc12 [compound 314]
6.00 to 7.30 | 6.24 | Cc1nc2cc(C(F)(F)F)cc(C#N)c2c(=O)n1CCOc1ccc(Cl)cc1-c1nsc2c(C(=O)O)csc12 [compound 315]
> 7.30 | 7.69 | Cc1nc2ccc(C(N)=O)c(C#N)c2c(=O)n1CCOc1ccc(Cl)cc1-c1ccnc2c(C(=O)O)csc12 [compound 316]
> 7.30 | 7.77 | Cc1nc2cc(C(N)=O)cc(C#N)c2c(=O)n1CCOc1ccc(Cl)cc1-c1ccnc2c(C(=O)O)csc12 [compound 317]
> 7.30 | 8.53 | Cc1c(S(C)(=O)=O)c2cc(C(F)(F)F)cc(C#N)c2c(=O)n1CCOc1ccc(Cl)cc1-c1ccnc2c(C(=O)O)csc12 [compound 318]

pIC50 [1] | pIC50 [2] | Compound
6.00 to 7.30 | 7.27 | Cc1nc2cc(C(F)(F)F)cc(C#N)c2c(=O)n1CCOc1ccc(Cl)cc1-c1cncc2c(C(=O)O)csc12 [compound 319]
> 7.30 | 7.36 | Cc1nc2cc(C(F)(F)F)cc(C#N)c2c(=O)n1CCOc1ccc(Cl)cc1-c1ccnc2c(C(=O)O)cn(C)c12 [compound 320]
> 7.30 | 8.31 | Cc1nc2cc(C(F)(F)F)c(CC3CN(CCF)C3)c(C#N)c2c(=O)n1CCOc1ccc(Cl)cc1-c1ccnc2c(C(=O)O)csc12 [compound 321]
6.00 to 7.30 | 6.94 | Cc1nc2cc(C(F)(F)F)cc(C#N)c2c(=O)n1CCOc1ccc(Cl)cc1-c1cccc2c(C(=O)O)c[nH]c12 [compound 322]
6.00 to 7.30 | 7.08 | Cc1nc2cc(C(F)(F)F)cc(C#N)c2c(=O)n1CCOc1ccc(Cl)cc1-c1ccnc2c(C(=O)O)c[nH]c12 [compound 323]
6.00 to 7.30 | 7.03 | Cc1nc2cc(C(F)(F)F)cc(C#N)c2c(=O)n1CCOc1ccc(Cl)cc1-c1coc2c(C(=O)O)ccnc12 [compound 324]
6.00 to 7.30 | 7.28 | Cc1nc2cc(C(F)(F)F)cc(C#N)c2c(=O)n1CCOc1ccc(Cl)cc1-c1ccnc2c(C(=O)O)coc12 [compound 325]
< 6.00 | 5.84 | Cc1nc2cc(C(F)(F)F)cc(C#N)c2c(=O)n1CCOc1ccc(Cl)cc1N1CCC(C(=O)O)CC1 [compound 326]
> 7.30 | 7.36 | Cc1nc2cc(C(F)(F)F)cc(C#N)c2c(=O)n1CCOc1ccc(Cl)cc1-c1cccc2c1S(=O)(=O)C=C2C(=O)O [compound 327]
< 6.00 | 5.88 | Cc1nc2cc(C(F)(F)F)cc(C#N)c2c(=O)n1CCOc1ccc(Cl)cc1N1CCC(CC(=O)O)CC1 [compound 328]
> 7.30 | 7.33 | COc1cc(-c2cc(Cl)ccc2OCCn2c(C)nc3cc(C(F)(F)F)cc(C#N)c3c2=O)c2scc(C(=O)O)c2n1 [compound 329]
> 7.30 | 7.32 | CCc1cc(-c2cc(Cl)ccc2OCCn2c(C)nc3cc(C(F)(F)F)cc(C#N)c3c2=O)c2scc(C(=O)O)c2n1 [compound 330]
> 7.30 | 7.42 | Cc1nc2cc(C(F)(F)F)cc(C#N)c2c(=O)n1CCOc1ccc(Cl)cc1-c1cc(=O)n(C)c2c(C(=O)O)csc12 [compound 332]
> 7.30 | 7.98 | Cc1cc(-c2cc(Cl)ccc2OCCn2c(C)nc3cc4c(c(C#N)c3c2=O)CCNC4)c2scc(C(=O)O)c2n1 [compound 334]
6.00 to 7.30 | – | Cc1cc(-c2cc(Cl)ccc2OCCn2c(C)nc3cc4c(c(C#N)c3c2=O)CCN(C)C4)c2scc(C(=O)O)c2n1 [compound 335]
> 7.30 | 7.55 | Cc1cc(-c2cc(Cl)ccc2OCCn2c(C)nc3cc4c(c(C#N)c3c2=O)CN(C)CC4)c2scc(C(=O)O)c2n1 [compound 336]
> 7.30 | 7.59 | Cc1cc(-c2cc(Cl)ccc2OCCn2c(C)nc3cc(C(F)(F)F)cnc3c2=O)c2scc(C(=O)O)c2n1 [compound 337]
> 7.30 | 7.34 | CCc1ncc(C#N)c2c(=O)n(CCOc3ccc(Cl)cc3-c3cc(C)nc4c(C(=O)O)csc34)c(C)nc12 [compound 338]
> 7.30 | 7.57 | Cc1cc(-c2cc(Cl)ccc2OCCn2c(C)nc3c(C4CC4)ncc(C#N)c3c2=O)c2scc(C(=O)O)c2n1 [compound 339]
> 7.30 | 8.30 | Cc1cc(-c2cc(Cl)ccc2OCCn2c(C)nc3c(C(F)(F)F)ncc(C#N)c3c2=O)c2scc(C(=O)O)c2n1 [compound 340]
> 7.30 | 7.35 | Cc1cc(-c2c(C(F)(F)F)cc3nc(C)n(CCOc4ccc(Cl)cc4-c4cc(C)nc5c(C(=O)O)csc45)c(=O)c3c2C#N)ccn1 [compound 341]
> 7.30 | 7.32 | Cc1cc(-c2cc(Cl)ccc2OCCn2c(C)nc3cc(C(F)(F)F)c(-c4cncc(F)c4)c(C#N)c3c2=O)c2scc(C(=O)O)c2n1 [compound 342]
> 7.30 | 7.38 | Cc1cc(-c2cc(Cl)ccc2OCCn2c(C)nc3cc(C(F)(F)F)c(-c4cnccc4F)c(C#N)c3c2=O)c2scc(C(=O)O)c2n1 [compound 343]
> 7.30 | 7.49 | Cc1cc(-c2cc(Cl)ccc2OCCn2c(C)nc3cc(C(F)(F)F)c(-c4ccncc4F)c(C#N)c3c2=O)c2scc(C(=O)O)c2n1 [compound 344]
> 7.30 | 7.74 | Cc1cc(-c2cc(Cl)ccc2OCCn2c(C)nc3cc(C(F)(F)F)c(-c4ccccc4CO)nc3c2=O)c2scc(C(=O)O)c2n1 [compound 346]
> 7.30 | 7.49 | Cc1cc(-c2cc(Cl)ccc2OCCn2c(C)nc3cc(C(F)(F)F)c(-c4cnsc4)c(C#N)c3c2=O)c2scc(C(=O)O)c2n1 [compound 347]

Compound | pIC50 [1] | pIC50 [2]
Cc1cc(-c2cc(Cl)ccc2OCCn2c(C)nc3cc(C(F)(F)F)cc(C#N)c3c2=O)c2scc(C(=O)O)c2c1F [compound 333] | – | 7.60
